This is an account of results in ChEMBL document CHEMBL1212695, “An allosteric potentiator of M4 mAChR modulates hippocampal synaptic transmission” (Nat Chem Biol, 2008).

The source made the active and inactive calls. The calls are words filed in the database; no cut-off is given here.

Assay [1] deals with T1, Muscarinic acetylcholine receptor M4 (Rattus norvegicus) (UniProt P08485).
T1 sequence (whole entry): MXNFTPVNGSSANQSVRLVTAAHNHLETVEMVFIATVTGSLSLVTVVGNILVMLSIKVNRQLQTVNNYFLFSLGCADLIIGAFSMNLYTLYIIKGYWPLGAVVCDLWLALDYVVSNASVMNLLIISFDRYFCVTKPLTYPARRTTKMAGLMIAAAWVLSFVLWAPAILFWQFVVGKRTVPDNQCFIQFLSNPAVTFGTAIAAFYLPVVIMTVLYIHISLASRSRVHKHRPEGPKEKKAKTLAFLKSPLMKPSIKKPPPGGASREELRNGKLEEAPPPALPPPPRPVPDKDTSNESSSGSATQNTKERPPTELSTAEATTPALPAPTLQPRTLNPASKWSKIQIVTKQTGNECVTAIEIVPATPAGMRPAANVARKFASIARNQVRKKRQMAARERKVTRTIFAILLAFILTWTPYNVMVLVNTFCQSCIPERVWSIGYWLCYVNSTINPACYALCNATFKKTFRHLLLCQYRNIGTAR
Nature of the assay: Allosteric activation of rat recombinant muscarinic M4 receptor expressed in CHO cells assessed as induction of calcium mobilization after 1 hr by fluorescence assay. The format is functional, cell-based. In general terms: A change in cytosolic calcium serves as a functional read-out for many receptors and channels.

Assay [2] has as its target T1, Muscarinic acetylcholine receptor M4 (Rattus norvegicus). Nature of the assay: (§1) Allosteric activation of rat recombinant muscarinic M4 receptor expressed in CHO cells assessed as potentiation of 10 uM acetylcholine-induced calcium mobilization after 1 hr by fluorescence assay. Format: functional, cell-based.
The target of assay [3] is T2, Muscarinic acetylcholine receptor M1 (Rattus norvegicus) (UniProt P08482).
T2 sequence (whole entry): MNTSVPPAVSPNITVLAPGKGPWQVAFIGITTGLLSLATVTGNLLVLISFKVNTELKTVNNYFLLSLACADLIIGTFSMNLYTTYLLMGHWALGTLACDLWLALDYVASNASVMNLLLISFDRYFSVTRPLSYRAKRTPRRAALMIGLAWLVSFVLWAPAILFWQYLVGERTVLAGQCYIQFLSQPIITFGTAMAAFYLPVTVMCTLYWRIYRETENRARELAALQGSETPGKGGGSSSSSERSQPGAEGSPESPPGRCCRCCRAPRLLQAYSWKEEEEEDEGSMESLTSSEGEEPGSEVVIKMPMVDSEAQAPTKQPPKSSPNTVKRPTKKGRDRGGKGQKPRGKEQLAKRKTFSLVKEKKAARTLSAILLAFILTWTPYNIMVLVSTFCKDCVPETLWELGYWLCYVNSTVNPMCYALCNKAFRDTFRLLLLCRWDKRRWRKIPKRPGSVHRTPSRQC
Nature of the assay: Allosteric activation of rat recombinant muscarinic M1 receptor expressed in CHO cells assessed as potentiation of acetylcholine-induced calcium mobilization at 10 uM after 1 hr by fluorescence assay. The format is functional, cell-based.

In assay [4] the target is T3, Muscarinic acetylcholine receptor M5 (Rattus norvegicus) (UniProt P08911).
T3 sequence (whole entry): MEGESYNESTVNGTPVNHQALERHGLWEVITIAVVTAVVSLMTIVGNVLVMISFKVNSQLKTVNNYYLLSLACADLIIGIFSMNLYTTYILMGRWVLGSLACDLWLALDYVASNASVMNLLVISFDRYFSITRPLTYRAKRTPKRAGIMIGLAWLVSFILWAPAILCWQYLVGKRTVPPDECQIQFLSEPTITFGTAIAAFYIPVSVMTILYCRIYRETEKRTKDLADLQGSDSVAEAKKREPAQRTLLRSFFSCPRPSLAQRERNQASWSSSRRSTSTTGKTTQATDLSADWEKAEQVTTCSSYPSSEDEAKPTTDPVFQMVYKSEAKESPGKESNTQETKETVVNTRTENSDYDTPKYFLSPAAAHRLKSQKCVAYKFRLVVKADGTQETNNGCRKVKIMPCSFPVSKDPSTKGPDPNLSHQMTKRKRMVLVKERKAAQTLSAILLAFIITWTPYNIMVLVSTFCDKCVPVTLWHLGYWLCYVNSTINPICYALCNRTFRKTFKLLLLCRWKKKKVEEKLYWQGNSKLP
Put plainly: Allosteric activation of rat recombinant muscarinic M5 receptor expressed in CHO cells assessed as potentiation of acetylcholine-induced calcium mobilization at 10 uM after 1 hr by fluorescence assay. The format is functional, cell-based.

For assay [5], the target named is Muscarinic acetylcholine receptor M3 (Rattus norvegicus) (UniProt P08483). Nature of the assay: Allosteric activation of rat recombinant muscarinic M3 receptor expressed in CHO cells assessed as potentiation of acetylcholine-induced calcium mobilization at 10 uM after 1 hr by fluorescence assay. Format: functional, cell-based.
Assay [6] concerns the target T1, Muscarinic acetylcholine receptor M4 (Rattus norvegicus). Nature of the assay: Allosteric activation of rat recombinant muscarinic M4 receptor expressed in CHO cells assessed as […] in acetylcholine EC50 for induction of calcium mobilization at 10 uM after 1 hr by fluorescence assay. Format: functional, cell-based.
For assay [7], the target named is T4, Muscarinic acetylcholine receptor M2 (Rattus norvegicus) (UniProt P10980).
T4 sequence (whole entry): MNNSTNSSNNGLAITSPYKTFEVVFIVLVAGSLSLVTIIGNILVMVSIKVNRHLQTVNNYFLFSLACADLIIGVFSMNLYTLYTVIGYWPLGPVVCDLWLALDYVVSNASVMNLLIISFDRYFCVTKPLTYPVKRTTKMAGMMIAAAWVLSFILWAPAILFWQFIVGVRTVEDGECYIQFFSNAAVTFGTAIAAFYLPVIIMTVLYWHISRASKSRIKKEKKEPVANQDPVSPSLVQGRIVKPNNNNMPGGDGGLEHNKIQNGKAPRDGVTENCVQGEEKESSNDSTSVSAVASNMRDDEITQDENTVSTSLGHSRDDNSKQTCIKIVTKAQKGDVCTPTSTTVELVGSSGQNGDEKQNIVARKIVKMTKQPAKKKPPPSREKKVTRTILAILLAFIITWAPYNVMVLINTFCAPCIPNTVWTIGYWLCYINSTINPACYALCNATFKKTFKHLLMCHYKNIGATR
Put plainly: Allosteric activation of rat recombinant muscarinic M2 receptor expressed in CHO cells assessed as potentiation of acetylcholine-induced calcium mobilization at 10 uM after 1 hr by fluorescence assay. Format: functional, cell-based.

For assay [8], the target named is T5, Muscarinic acetylcholine receptor M4 (Rattus norvegicus, UniProt P08485).
T5 sequence (P08485 whole entry): T1 sequence (whole entry)
Put plainly: Allosteric activation of rat recombinant muscarinic M4 receptor expressed in CHO cells assessed as potentiation of 15 nM acetylcholine-induced calcium mobilization after 1 hr by fluorescence assay. The format is functional, cell-based.

Assay [9] addresses T1, Muscarinic acetylcholine receptor M4 (Rattus norvegicus). Put plainly: Agonist activity at muscarinic M4 receptor in Sprague-Dawley rat hippocampal CA1 pyramidal neuron assessed as reduction in excitatory postsynaptic current at 5 uM by whole-cell electrophysiology in presence of carbachol relative to control. Format: functional, tissue-based. The settings on record: Hippocampus.

In assay [10] the target is T5, Muscarinic acetylcholine receptor M4. The description is as §1. The format is functional, cell-based.

A word on the EC20: it is the point of the concentration-response curve where the effect stands at 20%. As a reminder, the EC50 is the concentration giving half of the maximal effect. By inhibition is commonly meant the drop in the measured response relative to a control, in per cent.

Muscarinic acetylcholine receptor M3 (Rattus norvegicus), sequence (P08483 whole entry, looked up): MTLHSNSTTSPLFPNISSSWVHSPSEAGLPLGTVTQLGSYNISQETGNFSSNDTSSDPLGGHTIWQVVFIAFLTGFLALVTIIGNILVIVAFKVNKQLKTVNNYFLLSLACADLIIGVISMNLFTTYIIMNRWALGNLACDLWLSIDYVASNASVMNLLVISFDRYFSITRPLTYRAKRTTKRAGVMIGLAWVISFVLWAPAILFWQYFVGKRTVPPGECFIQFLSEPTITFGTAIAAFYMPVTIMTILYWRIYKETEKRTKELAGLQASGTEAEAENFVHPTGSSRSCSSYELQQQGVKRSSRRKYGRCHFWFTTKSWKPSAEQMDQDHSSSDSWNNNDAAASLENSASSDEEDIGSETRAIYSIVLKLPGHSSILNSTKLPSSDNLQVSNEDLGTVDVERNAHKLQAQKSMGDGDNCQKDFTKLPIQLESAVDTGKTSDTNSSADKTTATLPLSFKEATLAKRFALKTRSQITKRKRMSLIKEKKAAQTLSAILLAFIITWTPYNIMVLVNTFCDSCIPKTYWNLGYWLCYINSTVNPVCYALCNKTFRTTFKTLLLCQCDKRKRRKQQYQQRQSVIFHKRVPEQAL

`CC(=O)OCC[N+](C)(C)C`: in assay [1], the EC20 came to 15 nM and the EC100 was found to be 10 µM.

In the case of `Cc1cc(C)c2c(N)c(C(=O)NC(C)(C)C)sc2n1`, the result in [2] was Active.

In the case of `Cc1cc(C)c2c(N)c(C(=O)NCC(C)C)sc2n1`, the outcome in assay [2] was Active.

Take `Cc1cc(C)c2c(N)c(C(=O)N[C@H](C)c3ccccc3)sc2n1`: in assay [2], the outcome was Active.

On to `Cc1cc(C)c2c(N)c(C(=O)NCc3ccco3)sc2n1`, for which the result in assay [3], in [4], in [5] and in [7] was inactive. Further, the fold change (FC) in assay [6] was 21.

As for `CCNC(=O)c1sc2nc(C)cc(C)c2c1N`, the result in assay [2] was Active.

Regarding `Cc1cc(C)c2c(N)c(C(=O)NCc3ccccc3)sc2n1`, the outcome in [3], in assay [4], in [5] and in [7] was inactive. The EC50 in assay [8] is 1300 nM.

For `Cc1cc(C)c2c(N)c(C(=O)N[C@@H](C)c3ccccc3)sc2n1`, in [9], the inhibition came out at 61.6%. The outcome in [2] was inactive.

As for `Cc1cc(C)c2c(N)c(C(=O)NC(C)C)sc2n1`, the result in assay [3], in assay [4], in assay [5] and in [7] was inactive. In assay [8], the concentration for a half-maximal effect (EC50) was determined as 6000 nM.

`CCCNC(=O)c1sc2nc(C)cc(C)c2c1N`: in assay [2], the outcome was Active.

With `Cc1cc(C)c2c(N)c(C(=O)NCc3ccc(C(F)(F)F)cc3)sc2n1`, the concentration for a half-maximal effect (EC50) in assay [10] is 715 nM. Besides, the fold change (FC) in assay [6] was determined as 37.

With `Cc1cc(C)c2c(N)c(C(=O)NC3CC3)sc2n1`, the outcome in assay [2] was Active.

Take `Cc1cc(C)c2c(N)c(C(=O)NCc3ccc(F)cc3)sc2n1`: in assay [10], the concentration for a half-maximal effect (EC50) was determined as 300 nM. In addition, in assay [6], the fold change (FC) turned out to be 30.
